This is an account of results in publication PMC4277633 (Iranian Journal of Pharmaceutical Research : IJPR, 2015).

Series [1] has as its system Bacillus Calmette–Guérin (BCG) (1173P2). Briefly: organism not typed. The class given is cell-based, Mycobacterium bovis.
The test system of series [2] is Human Umbilical Vein Endothelial (HUVEC) cell line. In words: cells. Particulars: 24 h, read-out: MTT IC 50.
The next series has as its system M. tuberculosis. The note with it: cited from earlier work; for activity against mychobacterium tuberculosis: both active and persistent form.
Series [3] concerns Human Umbilical Vein Endothelial (HUVEC) cell line.
Series [4] has as its system pantothenate synthetase (PanC, Rv3602c). Particulars: HTS hits; cited from earlier work.
Where [5] appears, read: 48 h, read-out: MIC 48 h, BCG, alamar blue, colour read after 48 h reincubation.
The mark [6] stands for this setting: 72 h, read-out: BCG MIC, Table 4, same values as 72 h reading.
Setting [7] is: 72 h, read-out: MIC 72 h, BCG, alamar blue, colour read after 72 h reincubation.
Setting [8] is: 72 h, read-out: MIC, Mycobacterium bovis BCG, corresponds to 72 h values.

≈ marks a conversion by molar mass, not a printed value. Structures can show the parent of a compound that is named as a salt. *1 amine or outer side, *2 acyl side, *3 side chain or, on linkers, in order; H or OH if unused. Where a SMILES comes first, the peptide text is derived from it. Bridges are numbered along the chain shown (N, C = ends). Roman numbers before positions name the chains, in order. [ ]: non-standard residue; d: D form. Actinocin(9to1) = Cc1c2oc3c(C)ccc(C(=O)[*:1])c3nc-2c(C(=O)[*:2])c(N)c1=O; NMeV = CN[C@H](C(=O)O)C(C)C; Sar = CNCC(=O)O Some results are limits rather than exact numbers.

In the case of `c1ccc2c(c1)CCN2` [Compound 1d, indoline], the MIC was 31.2 µg/mL (≈ 262 µM) in series [1] (setting [5]), 7.81 µg/mL (≈ 65.5 µM) in series [1] (setting [6]), 7.81 µg/mL (≈ 65.5 µM) in series [1] (setting [7]) and 7.81 µg/mL (≈ 65.5 µM) in series [1] (setting [8]). For the same compound, the IC50 in series [2] was found to be 800 µg/mL (≈ 6710 µM).

With `C[C@]1(COc2ccc(N3CCC(Oc4ccc(OC(F)(F)F)cc4)CC3)cc2)Cn2cc([N+](=O)[O-])nc2O1` [OPC-676833], in the series with M. tuberculosis, the “activity against mychobacterium tuberculosis” value was “good in-vitro and in-vivo activity”.

As to `O=C(O)c1cc2ccccc2oc1=O` [Compound 2b, coumarin-3-carboxylic acid], the MIC in series [1] (setting [5]) is 125 µg/mL (≈ 657 µM); in series [1] (setting [6]), 31.2 µg/mL (≈ 164 µM); in series [1] (setting [7]) it was 31.2 µg/mL (≈ 164 µM); in series [1] (setting [8]), 31.2 µg/mL (≈ 164 µM). The “selectivity indices (SI)” value in series [3] is on record as at least 10. For the same compound, the IC50 in series [2] came out at 924 µg/mL (≈ 4860 µM).

Turning to `O=C(O)/C=C/c1cnc[nH]1` [Compound 1j], the MIC in series [1] (setting [5]), in series [1] (setting [6]) and in series [1] (setting [7]) was 500 µg/mL (≈ 3620 µM) each time. The “antimycobacterial activity” value in series [1] (BCG) is listed as “no activity”. For the same compound, the IC50 in series [2] was found to be 1190 µg/mL (≈ 8590 µM).

Take `Nc1ccc2c(c1)Cc1ccccc1-2` [Compound 1e, 2-fluorenamine]: the MIC in series [1] (setting [5]) worked out at 31.2 µg/mL (≈ 172 µM); in series [1] (setting [6]) it was 11.7 µg/mL (≈ 64.7 µM); in series [1] (setting [7]), 11.7 µg/mL (≈ 64.7 µM); in series [1] (setting [8]) it was 11.7 µg/mL (≈ 64.7 µM). Moreover, the “selectivity indices (SI)” value in series [3] is at least 10. Moreover, the IC50 in series [2] was determined as 726 µg/mL (≈ 4010 µM).

As to `c1ccc2[nH]ccc2c1` [Compound 1c, indole], the MIC in series [1] (setting [5]) was 125 µg/mL (≈ 1070 µM); in series [1] (setting [6]), 46.9 µg/mL (≈ 400 µM); in series [1] (setting [7]), 46.9 µg/mL (≈ 400 µM); in series [1] (setting [8]), 46.9 µg/mL (≈ 400 µM). For the same compound, the “selectivity indices (SI)” value in series [3] is at least 10. In addition, in the series with M. tuberculosis, the “tuberculostatic effect” value is recorded as “comparable with Isoniazid”. In series [2], the IC50 amounted to 573 µg/mL (≈ 4890 µM).

`Nc1cccc2c1C(=O)c1ccccc1C2=O` [Compound 1f, 1-aminoanthraquinone]: the MIC was 188 µg/mL (≈ 840 µM) in series [1] (setting [5]); 7.81 µg/mL (≈ 35 µM) in series [1] (setting [6]); 7.81 µg/mL (≈ 35 µM) in series [1] (setting [7]); 7.8 µg/mL (≈ 34.9 µM) in series [1] (setting [8]); 7.81 µg/mL (≈ 35 µM) in series [1] (Mycobacterium bovis BCG, corresponds to 72 h values). Further, the “cytotoxicity in HUVEC cell line” value in series [3] is “not in acceptable range”. Moreover, in series [2], the IC50 was found to be 14.2 µg/mL (≈ 63.5 µM).

In the case of `COc1cccc2c1C(=O)c1c(O)c3c(c(O)c1C2=O)C[C@@](O)(C(=O)CO)C[C@@H]3O[C@H]1C[C@H](N)[C@H](O)[C@H](C)O1` [doxorubicin, reference compound], the IC50 in series [2] turned out to be 3.1 µg/mL (≈ 5.7 µM).

For the compound `CCN(CC)CCOC(=O)C(Cc1cccc2ccccc12)CC1CCCO1` (stereo not shown) [nafronyl oxalate], the “activity against pantothenate synthetase” value in series [4] is given as “poor activity”.

For `O=[N+]([O-])c1cn2c(n1)OC[C@@H](OCc1ccc(OC(F)(F)F)cc1)C2` [PA-8242], the “activity against mychobacterium tuberculosis” value in the series with M. tuberculosis was “good in-vitro and in-vivo activity”.

For `Cc1cc(C(=O)O)no1` [Compound 2a, 5-methylisoxazole-3-carboxylic acid], the MIC came out at 500 µg/mL (≈ 3930 µM) in series [1] (setting [5]), 125 µg/mL (≈ 983 µM) in series [1] (setting [6]) and 125 µg/mL (≈ 983 µM) in series [1] (setting [7]). Besides, the “antimycobacterial activity” value in series [1] (BCG) is on record as “no antimycobacterial activity”. Also, the IC50 in series [2] amounted to 1090 µg/mL (≈ 8600 µM).

Take `CC[C@@H](CO)NCCN[C@@H](CC)CO` [ethambutol, Ethambutol, reference compound]: the MIC in series [1] (Bacillus, BCG, read-out: MIC of ethambutol, positive control, table footnote, reading time not given) is 3.12 µg/mL.

Consider `N#Cc1ccccc1N` [Compound 1b], for which the results for the MIC in series [1] (setting [5]), in series [1] (setting [6]) and in series [1] (setting [7]) were 500 µg/mL (≈ 4230 µM), 93.8 µg/mL (≈ 794 µM) and 93.8 µg/mL (≈ 794 µM), respectively. Also, the IC50 in series [2] was 908 µg/mL (≈ 7680 µM).

As for `Nc1ccc(Nc2ccccc2)c2c1C(=O)c1ccccc1C2=O` [Compound 1g, 1-amino-4-anilino-9,10-anthraquinone], the MIC is 7.81 µg/mL (≈ 24.8 µM) in series [1] (setting [5]), below 3.9 µg/mL in series [1] (setting [6]), below 3.9 µg/mL in series [1] (setting [7]) and below 3.9 µg/mL in series [1] (setting [8]). Moreover, in series [3], the “selectivity indices (SI)” value was at least 10. Moreover, in series [2], the IC50 is 344 µg/mL (≈ 1100 µM).

On to `Nc1ccccc1` [Compound 1a], for which the MIC in series [1] (setting [5]) is 500 µg/mL (≈ 5370 µM); in series [1] (setting [6]), 250 µg/mL (≈ 2680 µM); in series [1] (setting [7]), 250 µg/mL (≈ 2680 µM). Besides, in series [2], the IC50 came out at 1040 µg/mL (≈ 11100 µM).

In the case of `Cc1c2oc3c(C)ccc(C(=O)N[C@@H]4C(=O)N[C@H](C(C)C)C(=O)N5CCC[C@H]5C(=O)N(C)CC(=O)N(C)[C@@H](C(C)C)C(=O)O[C@@H]4C)c3nc-2c(C(=O)N[C@@H]2C(=O)N[C@H](C(C)C)C(=O)N3CCC[C@H]3C(=O)N(C)CC(=O)N(C)[C@@H](C(C)C)C(=O)O[C@@H]2C)c(N)c1=O` [actinomycin D] (I: T[dV]P[Sar][NMeV] / II: T[dV]P[Sar][NMeV]; ester I:1-I:C, II:1-II:C; linker I:N-II:N via Actinocin(9to1)), the “activity against pantothenate synthetase” value in series [4] is on record as “poor activity”.

Consider `NCCCn1ccnc1` [Compound 1i], for which the MIC in series [1] (setting [5]) worked out at 250 µg/mL (≈ 2000 µM); in series [1] (setting [6]), 125 µg/mL (≈ 999 µM); in series [1] (setting [7]) it was 125 µg/mL (≈ 999 µM). In addition, the IC50 in series [2] came to 441 µg/mL (≈ 3520 µM).

Regarding `O=C1c2ccccc2C(=O)N1CCO` [Compound 1h, N-(2-Hydroxyethyl)-phthalimide], the MIC in series [1] (setting [5]), in series [1] (setting [6]) and in series [1] (setting [7]) was 500 µg/mL (≈ 2620 µM) throughout. In addition, the “antimycobacterial activity” value in series [1] (BCG) is given as “did not show good activity”. Further, the IC50 in series [2] amounted to 842 µg/mL (≈ 4400 µM).
